Source: ChEMBL document CHEMBL4425158, “Synthesis, structure-activity relationships and biological evaluation of 4,5,6,7-tetrahydropyrazolopyrazines as metabotropic glutamate receptor 5 negative allosteric modulators” (Bioorg Med Chem Lett, 2016)
In brackets after ≈: the same amount, converted by molar mass.

How the values were obtained:
[1] = molecular target: Metabotropic glutamate receptor 5 (Homo sapiens, UniProt P41594); experiment: Negative allosteric modulation of human recombinant mGluR5 expressed in HEK293 cells assessed as L-glutamate-induced intracellular calcium mobilization incubated for 20 mins before L-glutamate addition; format: functional, cell-based
[2] = Aqueous solubility of the compound at pH 1.2; format: physicochemical
[3] = Aqueous solubility of the compound at pH 7.4; format: physicochemical

Metabotropic glutamate receptor 5, sequence (P41594 whole entry): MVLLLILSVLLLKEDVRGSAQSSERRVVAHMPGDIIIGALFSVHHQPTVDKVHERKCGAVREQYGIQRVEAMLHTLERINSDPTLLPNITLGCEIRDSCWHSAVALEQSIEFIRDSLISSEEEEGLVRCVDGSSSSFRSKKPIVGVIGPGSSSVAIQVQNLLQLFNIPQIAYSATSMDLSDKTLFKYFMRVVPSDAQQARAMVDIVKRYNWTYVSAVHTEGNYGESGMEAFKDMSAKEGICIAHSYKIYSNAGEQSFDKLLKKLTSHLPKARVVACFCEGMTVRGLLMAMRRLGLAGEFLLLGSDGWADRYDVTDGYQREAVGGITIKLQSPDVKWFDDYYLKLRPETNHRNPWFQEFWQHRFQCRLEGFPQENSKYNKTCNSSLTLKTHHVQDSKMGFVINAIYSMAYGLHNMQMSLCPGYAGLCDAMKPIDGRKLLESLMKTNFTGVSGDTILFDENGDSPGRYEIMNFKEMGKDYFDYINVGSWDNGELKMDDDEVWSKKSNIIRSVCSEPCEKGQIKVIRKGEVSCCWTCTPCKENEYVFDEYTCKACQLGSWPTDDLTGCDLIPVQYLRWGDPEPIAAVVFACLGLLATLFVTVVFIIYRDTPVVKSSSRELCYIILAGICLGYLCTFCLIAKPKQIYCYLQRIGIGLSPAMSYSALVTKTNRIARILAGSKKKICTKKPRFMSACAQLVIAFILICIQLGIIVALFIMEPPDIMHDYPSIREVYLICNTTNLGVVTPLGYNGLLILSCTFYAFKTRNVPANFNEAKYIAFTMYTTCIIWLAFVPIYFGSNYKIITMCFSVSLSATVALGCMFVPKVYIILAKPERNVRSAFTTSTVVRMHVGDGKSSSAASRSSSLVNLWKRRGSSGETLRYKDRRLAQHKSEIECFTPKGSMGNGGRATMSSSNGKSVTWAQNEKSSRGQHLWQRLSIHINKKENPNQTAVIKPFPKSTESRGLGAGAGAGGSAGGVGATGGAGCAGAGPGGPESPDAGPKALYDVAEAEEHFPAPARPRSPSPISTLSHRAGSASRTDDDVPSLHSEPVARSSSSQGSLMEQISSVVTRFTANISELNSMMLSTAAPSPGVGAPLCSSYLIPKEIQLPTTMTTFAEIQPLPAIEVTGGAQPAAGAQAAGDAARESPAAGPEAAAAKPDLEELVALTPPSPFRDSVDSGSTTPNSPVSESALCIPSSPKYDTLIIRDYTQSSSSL

| IC50 [1] [nM] | solubility [2] [µg/mL] | solubility [3] [µg/mL] | Structure (SMILES) |
| --- | --- | --- | --- |
| 9470 |  |  | O=C(c1ccc(Cl)cc1)N1CCn2nc(-c3ccccn3)cc2C1 |
| 482 |  |  | COc1cccc(C(=O)N2CCn3nc(-c4ccc(F)cn4)cc3C2)c1 |
| 1290 |  |  | O=C(c1ccccc1)N1CCn2nc(-c3ccncc3)cc2C1 |
| 383 |  |  | O=C(c1cccc(C(F)(F)F)c1)N1CCn2nc(-c3ccc(F)cn3)cc2C1 |
| > 10000 |  |  | N#Cc1cccc(C(=O)N2CCn3nc(-c4ccc(F)cn4)cc3C2)c1 |
| 451 |  |  | Cc1ccnc(-c2cc3n(n2)CCN(C(=O)c2ccccc2)C3)c1 |
| 201 |  |  | O=C(c1ccccc1)N1CCn2nc(-c3ccc(Cl)cn3)cc2C1 |
| 197 |  |  | Cc1cc(F)cc(C(=O)N2CCn3nc(-c4ccc(F)cn4)cc3C2)c1 |
| 127 | 4 (≈ 13.2 µM) | 2 (≈ 6.59 µM) | O=C(c1ccccc1)N1CCn2nc(-c3ccccc3)cc2C1 |
| 477 |  |  | CC(C)(C)c1cc2n(n1)CCN(C(=O)c1ccc3ccccc3c1)C2 |
| > 10000 |  |  | O=C(c1ccccc1)N1CCn2nc(-c3cccnc3)cc2C1 |
| 257 |  |  | O=C(c1cccc(F)c1)N1CCn2nc(-c3ccc(F)cn3)cc2C1 |
